Laboratory results from patent US20120289492A1, “METHODS OF TREATING MITOCHONDRIAL DISORDERS USING METALLOPORPHYRINS” (priority 2009, published 2012).
Entries after “also recorded” stand apart in the source; their conditions may differ.

Experiments:
[1] = test system: 1-methyl-4-phenyl-1,2,3,6-tetrahydropyridine (MPTP) neurotoxicity; conditions: oral administration; cited from earlier work
[2] = Ames' test (mutagenicity); assay type: cell-based
From the text: Safety profile: A prototypical metalloporphyrin (AEOL10150; FIG. 1) has completed phase 1 trials in amyotrophic lateral sclerosis patients. Extensive safety studies of this compound have been completed in mice, monkeys and rats. […] Safety studies for the structurally related compound, AEOL11207 need to be completed once its efficacy is established in animal studies.

[3] = test system: forebrain of Sod2−/− mice; test: Mitochondrial oxidative stress and bioenergetic indices in brain of Sod2−/− mice; assay type: in vivo
Experimental: To determine whether AEOL11207 decreases mitochondrial dysfunction and corrects key bioenergetic parameters in Sod2−/− mice, activity was measured of the oxidant sensitive mitochondrial enzyme, aconitase and oxidant insensitive control, fumarase, ATP, 3-nitrotyrosine (3NT), a marker of oxidative damage to proteins, reduced coenzyme A (CoASH) which assesses the mitochondrial redox state and the activity of the sodium potassium ATPase (Na+-K+ ATPase). […] FIGS. 5A-5EC illustrate attenuation of aconitase inactivation (5A), ATP depletion (5B), 3NT formation ([…]), CoASH depletion (5D) and decreased Na+-K+ ATPase activity (5E) in Sod2−/− mice by AEOL11207 (5 mg/kg, s.c. beginning PND5, n=*p<0.05, #p<0.01).
Methods:3-nitrotyrosine (3-NT) measurement by HPLC 3-NT assay are performed with HPLC equipped electrochemical detector using methods as previously described in the literature. The potentials of the electrochemical detector are set at 180/240/350/500/600/670/810/830 mV. Analyte separation is conducted on a TOSOHAAS (Montgomeryville, Pa.) reverse-phase ODS 80-TM C-18 analytical column (4.6 mm×[…]; 5 µm particle size). A two-component gradient elution system was used with component A of the mobile phase composed of 50 mM sodium acetate pH 3.2, and component B composed of 50mM sodium acetate and 40% methanol. The following gradient elution profile was used: 0-25 min, 100% A; 25-35 min, linear ramp to 50% B; 35-40 min, isocratic 50% B; 40-45 min, linear ramp to 100% A; 45-50 min, isocratic 100% A at a flow rate of 0.6 ml/min. 3-NT was expressed as a ratio of 3-NT to tyrosine.
Measurement of AMP, ADP and ATP: The levels of AMP, ADP and ATP are quantified by HPLC-UV set at 258 nm following previous described. Analyte are separated by […], […] C-18 reversed-phase column. Mobile phase is composed of 50 mM KH2PO4, 10% methanol, 3 mM TBAS and adjusted to pH 6.0 and flow rate set at 0.8 ml/min.
Aconitase and fumarase activity assay: Aconitase and fumarase activity are measured in mitochondrial fraction which isolated as previously described. Briefly, brain tissues are homogenized with a Dounce tissue grinder (Wheaton, Millville, N.J.) in ice-cold mitochondrial isolation buffer (70 mM sucrose, 210 mM mannitol, 5 mM Tris HCl, 1 mM EDTA pH 7.4). After homogenization, the suspensions are centrifuged at 800 g for 10 minutes at 4° C., and the supernatants centrifuged at 17,000 g for 10 minutes at 4° C. The pellets are washed by mitochondrial isolation buffer and centrifuged at 17,000 g for 10 minutes at 4° C. again. Aconitase activity is measured spectrophotometrically following previous described by monitoring the formation of cis-aconitate from isocitrate at 240 nm in 50 mM Tris HCl, pH 7.4, containing 0.6 mM MnCl2 at 25° C. Fumarase activity is measured by monitoring the increase in absorbance at 240 nm at 25° C. in a 1 ml reaction mixture containing 30 mM potassium phosphate, pH 7.4, 0.1 mM L-malate.
Isolation mitochondrial fraction Mitochondria were isolated from the forebrain of mice according to the previously described methods (Liang & Patel, (2006) Free Radic Biol Med 40, 316-22). In brief, the forebrain was homogenized with a Dounce tissue grinder (Wheaton, Millville, N.J.) in mitochondrial isolation buffer (70 mM sucrose, 210 mM mannitol, 5 mM Tris HCl, 1 mM EDTA; pH 7.4). The suspensions centrifuged at 800 g 4° C. for 10 min. The supernatants were centrifuged at 13000 g 4° C. for 10 min., pellets washed with mitochondrial isolation buffer and centrifuged at 13000 g 4° C. for 10 min. to obtain crude mitochondrial fractions. The purity of mitochondrial fractions has been confined by immunoblot analysis of cytochrome c oxidase (COX) (EC1.9.3.1) subunit IV and lactate dehydrogenase (LDH) (EC 1.1.1.27) in mitochondrial and cytosolic fractions. There is no mitochondria contamination in cytosolic fraction and about 5-10% cytosol contamination in mitochondrial fraction (Liang & Patel, (2006) Free Radic Biol Med 40, 316-22). […]

Wild-type mice = test: Tolerability in wild-type mice; assay type: in vivo; conditions: 5 mg/kg daily, up to 20 days of treatment
[4] = test system: parietal cortex of Sod2−/− mice; test: Histochemical analyses (H&E, Fluoro-Jade B) of Sod2−/− mouse brain; assay type: in vivo
[5] = test system: paraquat (PQ2+)-induced cell injury; test: Paraquat (PQ2+)-induced cell injury assay; assay type: cell-based; conditions: data not shown
[6] = Sod2−/− mice, 5 mg/kg s.c. from PND5

Compound: COC(=O)c1c2nc(c(C(F)(F)F)c3ccc([n-]3)c(C(=O)OC)c3nc(c(C(F)(F)F)c4ccc1[n-]4)C=C3)C=C2.[Cl-].[Mn+3] [AEOL11207]
- protection against MPTP neurotoxicity [1]: protected
- mutagenicity, Ames' test [2]: negative
- decreased CoASH levels [3, 6]: significantly attenuated
- increase in 3-nitrotyrosine (3NT) formation [3, 6]: significantly attenuated
- attenuation of the depletion of ATP ([3]; forebrain homogenates of Sod2−/− mice, 15-16 days old): 50%
- decreased Na+-K+ ATPase activity ([3]; forebrain homogenates, Sod2−/− mice, 5 mg/kg s.c. from PND5, 5 mg/kg): significantly attenuated; also recorded: significantly restored
- decrease in ATP levels (ATP depletion) ([3]; forebrain, Sod2−/− mice, 5 mg/kg s.c. from PND5): significantly attenuated
- decrease in aconitase activity (aconitase inactivation) ([3]; mitochondrial fractions, Sod2−/− mice, 5 mg/kg s.c. from PND5): significantly attenuated
- ill effects (Wild-type mice): no ill effects
- mortality (Wild-type mice): no mortality
- Histopathological damage including vacuole size and number ([4]; H&E staining, Sod2−/− mice P15-16): decreased
- neuronal degeneration (Fluoro-Jade B staining) ([4]; compared to vehicle treatment): Significant protection
- attenuation of Fluoro-Jade B relative fluorescence density ([4]; parietal cortex of Sod2−/− mice, compared to vehicle treatment): ~50%
- protective range [5]: 30 to 100 nM
